Experimental data reported in ChEMBL document CHEMBL4811240, “Discovery of N-substituted sulfamoylbenzamide derivatives as novel inhibitors of STAT3 signaling pathway based on Niclosamide” (Eur J Med Chem, 2021).
Calls of active or inactive are those of the source. No cut-off for these calls is given here.

Legend:
[1] = target: Proto-oncogene tyrosine-protein kinase receptor Ret (Homo sapiens) (UniProt P07949); assay: Inhibition of RET (658 to 1114 residues) (unknown origin) expressed in Sf21 at 10 uM preincubated for 10 mins followed by peptide substrate addition relative to control
SW480 = assay: Antiproliferative activity against human SW480 cells assessed as inhibition of cell viability at 10 uM after 48 hrs by MTT assay relative to control; format: functional
[2] = target: Signal transducer and activator of transcription 3 (Homo sapiens) (UniProt P40763); assay: Inhibition of IL-6 induced STAT3 phosphorylation in human MDA-MB-231 cells at 5 uM incubated for 2 hrs by Western blotting analysis; format: cell-based
[3] = target: Signal transducer and activator of transcription 1-alpha/beta (Homo sapiens) (UniProt P42224); assay: Inhibition of IL-6 induced STAT1 phosphorylation in human MDA-MB-231 cells at 1 to 10 uM preincubated for 2 hrs followed by IL-6 stimulation and measured after 45 mins by Western blotting analysis; format: cell-based; conditions: dose 1-10 µM, time 165.0 min
[4] = target: Signal transducer and activator of transcription 3 (Homo sapiens) (UniProt P40763); assay: Inhibition of STAT3 promoter activity in human MDA-MB-231 cells at 0.5 uM incubated for 24 hrs by dual luciferase reporter assay; format: cell-based
[5] = target: Proto-oncogene tyrosine-protein kinase Src (Homo sapiens) (UniProt P12931); assay: Inhibition of full length SRC (1 to 536 residues) (unknown origin) expressed in Sf21 cells at 10 uM preincubated for 10 mins followed by peptide substrate addition relative to control
[6] = target: RAC-beta serine/threonine-protein kinase (Homo sapiens) (UniProt P31751); assay: Inhibition of human N-terminal His-tagged full length AKT2 expressed in Sf9 cells at 10 uM preincubated for 10 mins followed by peptide substrate addition relative to control
MDA-MB-231 [7] = assay: Antiproliferative activity against human MDA-MB-231 cells assessed as inhibition of cell viability after 48 hrs by MTT assay; format: functional, cell-based; conditions: MDA-MB-231, 48 h
MDA-MB-231 [8] = assay: Induction of apoptosis in human MDA-MB-231 cells assessed as apoptotic cells at 2.5 uM measured after 24 hrs by annexinV-FITC/propidium iodide staining based flow cytometry analysis (reference value: 2.49%); format: functional
[9] = Toxicity in BALB/c nude mouse xenografted with human MDA-MB-231 cells assessed as effect on body weight at 30 mg/kg, ig administered every two days; format: organism-based; conditions: in vivo, po
MDA-MB-231 [10] = assay: Induction of apoptosis in human MDA-MB-231 cells assessed as increase in cleaved caspase 3 expression at 1 to 10 uM incubated for 24 hrs by Western blot analysis; format: functional, cell-based; conditions: dose 1-10 µM
MDA-MB-231 [11] = assay: Induction of apoptosis in human MDA-MB-231 cells assessed as increase in cleaved caspase 9 expression at 1 to 10 uM incubated for 24 hrs by Western blot analysis; format: functional, cell-based; conditions: dose 1-10 µM
MDA-MB-231 [12] = assay: Induction of apoptosis in human MDA-MB-231 cells assessed as decrease in Bcl-xl expression at 1 to 10 uM incubated for 24 hrs by Western blot analysis; format: functional, cell-based; conditions: dose 1-10 µM
[13] = target: Insulin-like growth factor 1 receptor (Homo sapiens) (UniProt P08069); assay: Inhibition of IGF1R (959 to 1367 residues) (unknown origin) expressed in Sf21 cells at 10 uM preincubated for 10 mins followed by peptide substrate addition relative to control
[14] = target: Mitogen-activated protein kinase 8 (Homo sapiens) (UniProt P45983); assay: Inhibition of N-terminal GST-tagged JNK1 (2 to 364 residues) (unknown origin) expressed in Escherichia coli at 10 uM preincubated for 10 mins followed by peptide substrate addition relative to control
[15] = target: Tyrosine-protein kinase JAK2 (Homo sapiens) (UniProt O60674); assay: Inhibition of JAK2 (826 to 1132 residues) (unknown origin) expressed in Sf21 cells at 10 uM preincubated for 10 mins followed by peptide substrate addition relative to control
[16] = target: Platelet-derived growth factor receptor beta (Homo sapiens) (UniProt P09619); assay: Inhibition of PDGFRbeta (557 to 1106 residues) (unknown origin) expressed in Sf21 at 10 uM preincubated for 10 mins followed by peptide substrate addition relative to control
[17] = system: Epidermal growth factor receptor (Homo sapiens), P00533 [T790M]; assay: Inhibition of EGFR T790M mutant (669 to 1210 residues) (unknown origin) expressed in Sf21 cells at 10 uM preincubated for 10 mins followed by peptide substrate addition relative to control
[18] = system: Epidermal growth factor receptor (Homo sapiens), P00533 [L858R]; assay: Inhibition of EGFR L858R mutant (669 to 1210 residues) (unknown origin) expressed in Sf21 cells at 10 uM preincubated for 10 mins followed by peptide substrate addition relative to control
[19] = target: Fibroblast growth factor receptor 1 (Homo sapiens) (UniProt P11362); assay: Inhibition of FGFR1 (398 to 822 residues) (unknown origin) expressed in Sf21 cells at 10 uM preincubated for 10 mins followed by peptide substrate addition relative to control
[20] = target: Mast/stem cell growth factor receptor Kit (Homo sapiens) (UniProt P10721); assay: Inhibition of c-KIT (544 to 976 residues) (unknown origin) expressed in Sf21 cells at 10 uM preincubated for 10 mins followed by peptide substrate addition relative to control
[21] = target: Proto-oncogene tyrosine-protein kinase ROS (Homo sapiens) (UniProt P08922); assay: Inhibition of N-terminal GST-tagged ROS1 (1883 to 2347 residues) (unknown origin) expressed in Sf21 cells at 10 uM preincubated for 10 mins followed by peptide substrate addition relative to control
[22] = Lipophilicity, log P of the compound; format: physicochemical; conditions: octanol/water
[23] = target: Mitogen-activated protein kinase 9 (Homo sapiens) (UniProt P45984); assay: Inhibition of N-terminal GST-tagged JNK2 (1 to 364 residues) (unknown origin) expressed in Escherichia coli at 10 uM preincubated for 10 mins followed by peptide substrate addition relative to control
[24] = target: Epidermal growth factor receptor (Homo sapiens) (UniProt P00533); assay: Inhibition of wild-type EGFR (669 to 1210 residues) (unknown origin) expressed in Sf21 cells at 10 uM preincubated for 10 mins followed by peptide substrate addition relative to control
[25] = target: RAC-alpha serine/threonine-protein kinase (Homo sapiens) (UniProt P31749); assay: Inhibition of human N-terminal His-tagged full length AKT1 (1 to 480 residues) expressed in Sf9 cells at 10 uM preincubated for 10 mins followed by peptide substrate addition relative to control
L3.6pl = assay: Antiproliferative activity against human L3.6 cells assessed as inhibition of cell viability at 10 uM after 48 hrs by MTT assay relative to control; format: functional
[26] = target: Signal transducer and activator of transcription 3 (Homo sapiens) (UniProt P40763); assay: Inhibition of STAT3 promoter activity in human MDA-MB-231 cells at 0.1 uM incubated for 24 hrs by dual luciferase reporter assay; format: cell-based
[27] = target: Signal transducer and activator of transcription 3 (Homo sapiens) (UniProt P40763); assay: Inhibition of STAT3 promoter activity in human MDA-MB-231 cells at 1 uM incubated for 24 hrs by dual luciferase reporter assay; format: cell-based

Signal transducer and activator of transcription 3 (Homo sapiens), sequence (P40763 whole entry, the tested form may be a part): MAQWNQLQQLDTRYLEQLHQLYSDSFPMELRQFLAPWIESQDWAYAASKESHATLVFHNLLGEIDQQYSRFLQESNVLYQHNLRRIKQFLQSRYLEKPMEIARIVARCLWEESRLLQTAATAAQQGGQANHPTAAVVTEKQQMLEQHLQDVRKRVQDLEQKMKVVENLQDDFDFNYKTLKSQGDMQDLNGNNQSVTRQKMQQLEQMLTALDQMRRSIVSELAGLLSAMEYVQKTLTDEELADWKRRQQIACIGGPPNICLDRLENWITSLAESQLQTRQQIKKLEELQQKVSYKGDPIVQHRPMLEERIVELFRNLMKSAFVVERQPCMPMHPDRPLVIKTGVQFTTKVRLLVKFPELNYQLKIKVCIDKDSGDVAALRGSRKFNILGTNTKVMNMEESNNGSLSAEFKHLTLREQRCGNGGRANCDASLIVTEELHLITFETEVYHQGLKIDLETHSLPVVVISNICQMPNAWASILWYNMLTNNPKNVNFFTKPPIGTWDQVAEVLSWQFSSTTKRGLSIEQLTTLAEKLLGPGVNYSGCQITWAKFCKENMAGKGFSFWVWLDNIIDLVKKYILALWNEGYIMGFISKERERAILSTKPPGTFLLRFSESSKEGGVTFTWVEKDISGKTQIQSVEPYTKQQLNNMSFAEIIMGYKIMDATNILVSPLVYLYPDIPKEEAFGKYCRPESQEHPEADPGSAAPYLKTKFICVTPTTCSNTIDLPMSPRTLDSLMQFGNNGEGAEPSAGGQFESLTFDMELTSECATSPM
Epidermal growth factor receptor (Homo sapiens), sequence (P00533 whole entry, the tested form may be a part): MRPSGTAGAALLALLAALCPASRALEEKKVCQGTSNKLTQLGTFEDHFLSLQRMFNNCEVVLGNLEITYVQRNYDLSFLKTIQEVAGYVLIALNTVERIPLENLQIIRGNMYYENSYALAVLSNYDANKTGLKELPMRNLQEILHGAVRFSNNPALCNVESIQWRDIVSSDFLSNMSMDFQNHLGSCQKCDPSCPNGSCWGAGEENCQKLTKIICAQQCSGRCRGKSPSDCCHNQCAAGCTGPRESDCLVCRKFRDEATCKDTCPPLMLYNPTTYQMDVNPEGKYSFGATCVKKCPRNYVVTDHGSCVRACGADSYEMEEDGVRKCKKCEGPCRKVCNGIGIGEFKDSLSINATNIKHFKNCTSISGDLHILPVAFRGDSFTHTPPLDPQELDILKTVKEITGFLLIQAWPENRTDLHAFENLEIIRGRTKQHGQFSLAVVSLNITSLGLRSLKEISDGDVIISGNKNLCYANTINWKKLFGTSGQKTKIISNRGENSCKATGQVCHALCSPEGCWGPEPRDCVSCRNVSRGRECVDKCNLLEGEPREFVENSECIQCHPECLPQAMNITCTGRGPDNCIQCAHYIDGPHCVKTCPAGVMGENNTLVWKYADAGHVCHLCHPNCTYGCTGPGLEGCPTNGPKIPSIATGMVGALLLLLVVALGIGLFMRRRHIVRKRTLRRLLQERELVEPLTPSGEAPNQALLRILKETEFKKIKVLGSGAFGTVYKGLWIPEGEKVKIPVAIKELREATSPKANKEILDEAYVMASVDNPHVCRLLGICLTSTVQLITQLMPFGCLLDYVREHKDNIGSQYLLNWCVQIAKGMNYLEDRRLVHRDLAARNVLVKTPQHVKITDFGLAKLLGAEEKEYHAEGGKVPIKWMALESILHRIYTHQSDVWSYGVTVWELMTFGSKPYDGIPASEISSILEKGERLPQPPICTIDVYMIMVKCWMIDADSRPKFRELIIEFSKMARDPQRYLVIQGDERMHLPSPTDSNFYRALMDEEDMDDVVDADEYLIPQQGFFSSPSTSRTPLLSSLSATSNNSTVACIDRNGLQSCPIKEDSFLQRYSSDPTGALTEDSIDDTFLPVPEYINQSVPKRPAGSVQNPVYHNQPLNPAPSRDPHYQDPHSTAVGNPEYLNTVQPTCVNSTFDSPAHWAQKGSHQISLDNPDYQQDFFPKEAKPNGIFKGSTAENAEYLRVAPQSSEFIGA
Proto-oncogene tyrosine-protein kinase receptor Ret (Homo sapiens), sequence (P07949 whole entry, the tested form may be a part): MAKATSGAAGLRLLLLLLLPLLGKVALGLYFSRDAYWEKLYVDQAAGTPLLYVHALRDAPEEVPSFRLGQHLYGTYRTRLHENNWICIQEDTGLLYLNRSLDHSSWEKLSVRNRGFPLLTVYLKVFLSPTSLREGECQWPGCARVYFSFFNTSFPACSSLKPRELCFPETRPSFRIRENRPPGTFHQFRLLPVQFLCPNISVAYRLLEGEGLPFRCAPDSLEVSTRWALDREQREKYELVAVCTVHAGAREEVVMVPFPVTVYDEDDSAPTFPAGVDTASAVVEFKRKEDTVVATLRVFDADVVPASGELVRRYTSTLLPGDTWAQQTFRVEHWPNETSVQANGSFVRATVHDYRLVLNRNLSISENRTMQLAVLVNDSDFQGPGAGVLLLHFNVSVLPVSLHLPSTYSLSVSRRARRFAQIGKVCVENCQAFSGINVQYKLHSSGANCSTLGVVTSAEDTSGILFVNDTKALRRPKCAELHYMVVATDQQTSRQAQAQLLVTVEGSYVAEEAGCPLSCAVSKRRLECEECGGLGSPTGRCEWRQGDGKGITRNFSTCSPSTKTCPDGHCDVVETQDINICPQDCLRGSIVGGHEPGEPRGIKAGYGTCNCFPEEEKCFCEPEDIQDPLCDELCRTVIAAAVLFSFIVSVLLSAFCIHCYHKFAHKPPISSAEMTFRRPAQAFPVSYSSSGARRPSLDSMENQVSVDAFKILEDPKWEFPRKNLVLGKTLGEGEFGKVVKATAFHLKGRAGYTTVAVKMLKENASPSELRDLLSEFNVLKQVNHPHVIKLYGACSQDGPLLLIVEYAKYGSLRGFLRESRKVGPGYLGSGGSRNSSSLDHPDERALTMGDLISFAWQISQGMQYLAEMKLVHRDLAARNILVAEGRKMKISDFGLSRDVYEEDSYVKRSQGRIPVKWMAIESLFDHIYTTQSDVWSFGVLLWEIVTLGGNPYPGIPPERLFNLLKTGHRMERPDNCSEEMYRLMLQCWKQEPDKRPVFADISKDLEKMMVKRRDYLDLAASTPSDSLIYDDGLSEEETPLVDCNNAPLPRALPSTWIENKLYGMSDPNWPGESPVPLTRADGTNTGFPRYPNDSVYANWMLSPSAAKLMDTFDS
Epidermal growth factor receptor (Homo sapiens), P00533 [L858R], sequence (P00533 whole entry L858R, the tested form may be a part): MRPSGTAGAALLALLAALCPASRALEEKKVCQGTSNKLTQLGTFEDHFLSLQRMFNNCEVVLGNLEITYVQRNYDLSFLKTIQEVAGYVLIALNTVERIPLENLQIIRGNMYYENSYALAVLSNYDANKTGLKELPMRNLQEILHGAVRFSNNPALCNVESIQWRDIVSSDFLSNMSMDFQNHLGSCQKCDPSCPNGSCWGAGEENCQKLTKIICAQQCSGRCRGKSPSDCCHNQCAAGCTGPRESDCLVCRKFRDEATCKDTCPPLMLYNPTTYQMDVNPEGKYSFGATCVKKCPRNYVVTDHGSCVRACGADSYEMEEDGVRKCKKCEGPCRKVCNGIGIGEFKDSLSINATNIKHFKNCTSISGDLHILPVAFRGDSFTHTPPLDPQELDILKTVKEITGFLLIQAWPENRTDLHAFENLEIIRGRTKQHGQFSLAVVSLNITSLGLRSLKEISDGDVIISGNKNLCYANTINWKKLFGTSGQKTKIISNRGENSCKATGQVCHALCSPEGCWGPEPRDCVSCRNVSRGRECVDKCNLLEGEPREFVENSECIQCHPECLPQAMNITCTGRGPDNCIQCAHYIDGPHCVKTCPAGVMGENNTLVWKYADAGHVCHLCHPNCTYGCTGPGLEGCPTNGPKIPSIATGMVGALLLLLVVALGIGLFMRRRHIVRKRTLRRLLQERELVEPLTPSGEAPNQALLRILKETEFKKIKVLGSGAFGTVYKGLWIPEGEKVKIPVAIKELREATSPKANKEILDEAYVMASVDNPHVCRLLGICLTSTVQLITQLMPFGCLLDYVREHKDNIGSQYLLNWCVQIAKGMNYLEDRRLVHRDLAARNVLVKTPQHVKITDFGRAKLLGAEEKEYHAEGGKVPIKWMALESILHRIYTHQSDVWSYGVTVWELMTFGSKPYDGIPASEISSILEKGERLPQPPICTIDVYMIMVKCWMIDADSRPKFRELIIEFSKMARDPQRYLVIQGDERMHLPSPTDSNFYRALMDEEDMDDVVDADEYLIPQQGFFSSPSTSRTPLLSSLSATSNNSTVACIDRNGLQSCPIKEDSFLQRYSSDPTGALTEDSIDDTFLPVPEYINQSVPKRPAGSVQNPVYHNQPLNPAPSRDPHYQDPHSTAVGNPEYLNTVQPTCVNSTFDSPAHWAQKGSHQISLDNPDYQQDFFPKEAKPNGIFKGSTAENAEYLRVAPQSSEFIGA
Signal transducer and activator of transcription 1-alpha/beta (Homo sapiens), sequence (P42224 whole entry): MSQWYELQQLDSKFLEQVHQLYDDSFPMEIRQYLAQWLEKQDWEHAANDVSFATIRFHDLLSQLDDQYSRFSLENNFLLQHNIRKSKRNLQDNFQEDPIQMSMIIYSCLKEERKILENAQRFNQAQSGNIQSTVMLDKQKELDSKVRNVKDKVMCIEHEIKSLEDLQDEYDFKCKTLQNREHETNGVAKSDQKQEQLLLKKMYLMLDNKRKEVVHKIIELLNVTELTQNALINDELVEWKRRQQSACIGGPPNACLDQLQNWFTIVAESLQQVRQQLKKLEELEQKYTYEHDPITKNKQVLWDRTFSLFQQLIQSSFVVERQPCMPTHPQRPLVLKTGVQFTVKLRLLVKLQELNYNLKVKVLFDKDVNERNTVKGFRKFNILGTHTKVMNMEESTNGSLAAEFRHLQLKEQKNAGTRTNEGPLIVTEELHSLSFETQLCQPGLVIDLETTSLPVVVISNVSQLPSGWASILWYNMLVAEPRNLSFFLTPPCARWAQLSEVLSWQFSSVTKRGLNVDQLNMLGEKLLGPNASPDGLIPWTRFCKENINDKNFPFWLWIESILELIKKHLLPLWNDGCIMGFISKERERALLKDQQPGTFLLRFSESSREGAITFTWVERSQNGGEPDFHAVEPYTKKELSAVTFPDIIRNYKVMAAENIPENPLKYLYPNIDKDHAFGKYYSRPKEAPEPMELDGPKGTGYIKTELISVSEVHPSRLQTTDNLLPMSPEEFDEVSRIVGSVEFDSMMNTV

inhibition [1]: -7.23% | inhibition [2]: 100% | inhibition [3]: inactive | inhibition [4]: 80.6% | inhibition [5]: 1.42% | inhibition [6]: 3.38% | IC50 (MDA-MB-231 [7]): 610 nM | inhibition [13]: 2.93% | inhibition [14]: 2.52% | inhibition [15]: 4.77% | inhibition [16]: -1.19% | inhibition [17]: 2.23% | inhibition [18]: 4.82% | inhibition [19]: 3.58% | inhibition [20]: 3.33% | inhibition [21]: -3.38% | logP [22]: 1.83 | inhibition [23]: 4.16% | inhibition [24]: 4.41% | inhibition [25]: 3.48% | inhibition [26]: 24.7% | inhibition [27]: 87.9%
SMILES: CC(C)(C)OC(=O)c1ccc(NC(=O)c2ccc(Cl)c(S(N)(=O)=O)c2)cc1
inhibition at 10 µM (SW480): 80.9% | Activity (MDA-MB-231 [8]): 16.01% | Activity [9]: Non-Toxic | Activity (MDA-MB-231 [10]): Active | Activity (MDA-MB-231 [11]): Active | Activity (MDA-MB-231 [12]): Active | inhibition at 10 µM (L3.6pl): 21.9%
